Results: PubChem BioAssay (NCI)
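Test compounds were applied to cells in 96-well plates for 48 hours at 5 doses. At the GI50, growth is halved. TGI: total growth inhibition.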

Assays:
Assay in all cases: NCI anticancer screen, dose series, 48 h
[1] = test system: UO-31 renal
[2] = test system: COLO 205 colon
[3] = test system: K-562 leukemia
[4] = test system: NCI-H226 lung
[5] = test system: TK-10 renal
[6] = test system: SK-OV-3 ovarian
[7] = test system: MOLT-4 leukemia
[8] = test system: SK-MEL-5 melanoma
[9] = test system: M14 melanoma
[10] = test system: NCI/ADR-RES ovarian

Row | SMILES | TGI [1] | TGI [2] | TGI [3] | TGI [4] | TGI [5] | TGI [6] | TGI [7] | TGI [8] | TGI [9] | GI50 [1] | GI50 [2] | GI50 [8] | GI50 [3] | GI50 [9] | GI50 [4] | GI50 [5] | GI50 [7] | GI50 [10] | TGI [10] | GI50 [6]
1 | Fc1ccc(C2SCc3nc4ccccc4n32)cc1Cl (centres undefined) | 43.5 µM | 28.6 µM | 55.9 µM | 52 µM | 67.1 µM | 49.5 µM | 69.9 µM | – | – | – | – | – | – | – | – | – | – | – | – | –
2 | CC1=N/C(=C\c2cccc([N+](=O)[O-])c2)C(=O)O1 | > 100 µM | > 100 µM | > 100 µM | – | > 100 µM | – | > 100 µM | > 100 µM | > 100 µM | – | – | – | – | – | – | – | – | – | – | –
3 | Cc1nc2ccccc2c(=O)n1-c1ccccc1F | > 100 µM | > 100 µM | > 100 µM | > 100 µM | > 100 µM | > 100 µM | > 100 µM | > 100 µM | > 100 µM | – | – | – | – | – | – | – | – | – | – | –
4 | CCCS(=O)(=O)/C(=C(\c1ccc(Br)cc1)S(=O)(=O)CCC)c1ccc(Br)cc1 | > 10 µM | > 10 µM | > 10 µM | > 10 µM | > 10 µM | > 10 µM | > 10 µM | > 10 µM | > 10 µM | – | – | – | – | – | – | – | – | – | – | –
5 | COC(=O)C(=Cc1cc(OC)c(OC)c(OC)c1-c1cc2c(cc1C(C)=O)OCO2)C(=O)OC | – | 66.8 µM | > 211 µM | 100 µM | 187 µM | > 211 µM | > 211 µM | 70.1 µM | – | – | – | – | – | – | – | – | – | – | – | –
6 | C/C(=C1/CCC/C(=C(/C)c2ccccc2)C1=O)c1ccccc1 | > 100 µM | > 100 µM | 47.1 µM | 56.5 µM | > 100 µM | > 100 µM | 64.3 µM | 47.8 µM | > 100 µM | – | – | – | – | – | – | – | – | – | – | –
7 | CCCCCCC(=O)C/C(=N/NC(N)=S)C(=O)NC1C2CC3CC(C2)CC1C3 (centres undefined) | > 100 µM | > 100 µM | – | > 100 µM | > 100 µM | – | > 100 µM | > 100 µM | > 100 µM | – | – | – | – | – | – | – | – | – | – | –
8 | COc1cccc(N2C(=O)[C@H]3CC(C)c4c([nH]c5ccccc45)[C@H]3C2=O)c1 (some centres undefined) | > 100 µM | > 100 µM | > 100 µM | > 100 µM | > 100 µM | 72.2 µM | > 100 µM | > 100 µM | > 100 µM | – | – | – | – | – | – | – | – | – | – | –
9 | C/C=C1/C(=C/c2[nH]c(/C=c3\[nH]/c(=C/C4=NC(=O)C(CC)=C4C)c(C)c3CCC(=O)O)c(CCC(=O)O)c2C)NC(=O)C1C (centres undefined) | > 150 µg/mL | > 150 µg/mL | > 150 µg/mL | > 150 µg/mL | > 150 µg/mL | – | > 150 µg/mL | > 150 µg/mL | > 150 µg/mL | > 150 µg/mL | > 150 µg/mL | > 150 µg/mL | > 150 µg/mL | > 150 µg/mL | > 150 µg/mL | > 150 µg/mL | > 150 µg/mL | – | – | –
10 | COC(C(O)c1ccc2c(c1)OCO2)P(=O)(c1ccccc1)c1ccccc1 (centres undefined) | > 100 µM | – | > 100 µM | > 100 µM | > 100 µM | – | > 100 µM | > 100 µM | > 100 µM | – | – | – | – | – | – | – | – | – | – | –
11 | COc1ccc(CNc2nc3cc(C(F)(F)F)ccc3nc2C)cc1OC | 65.1 µM | > 100 µM | > 100 µM | – | 87.8 µM | > 100 µM | 45.7 µM | 31.3 µM | 44.6 µM | – | – | – | – | – | – | – | – | – | – | –
12 | Cc1ccc(-c2cc(=O)c3cc(C)c(C)c(C(=O)O)c3o2)cc1C | > 100 µM | > 100 µM | > 100 µM | > 100 µM | > 100 µM | > 100 µM | > 100 µM | > 100 µM | > 100 µM | – | – | – | – | – | – | – | – | – | – | –
13 | O=C(Nc1ccc(Cl)cc1Cl)C(=O)C(C(=O)c1ccncc1)C1OC(=O)c2ccccc21 (centres undefined) | > 100 µM | > 100 µM | > 100 µM | > 100 µM | > 100 µM | > 100 µM | > 100 µM | > 100 µM | > 100 µM | – | – | – | – | – | – | – | – | – | – | –
14 | N#Cc1cccc(NC(=O)c2cc(-c3ccc(F)cc3F)ccc2O)c1 | 6.99 µM | 28.2 µM | > 100 µM | 6.43 µM | 20.1 µM | – | 6.65 µM | 2.15 µM | 7.84 µM | 2.26 µM | 10.9 µM | 0.728 µM | 1.98 µM | 1.94 µM | 1.67 µM | 3.24 µM | 2.46 µM | 2.19 µM | 6.84 µM | –
15 | CC(=O)O.[Au].c1ccc([PH+](c2ccccc2)c2ccccc2)cc1 | 24.4 µM | 4.73 µM | – | 19.1 µM | 6.74 µM | 29.2 µM | 4.17 µM | 2.9 µM | 2.77 µM | 11.1 µM | 1.99 µM | 1.26 µM | – | 1.39 µM | 6.59 µM | 2.92 µM | 1.61 µM | – | – | 15.8 µM
16 | COC1=CC2(C=CC1=O)c1cc(OC)c(OC)cc1CCN2C(=O)c1ccccc1 (centres undefined) | > 100 µM | > 100 µM | > 100 µM | > 100 µM | > 100 µM | > 100 µM | > 100 µM | > 100 µM | > 100 µM | – | – | – | – | – | – | – | – | – | – | –
17 | COC(=O)c1cc(C)c(C)c2c1NC(=O)CNC2=O | 91.6 µM | > 100 µM | > 100 µM | – | – | – | > 100 µM | – | > 100 µM | – | – | – | – | – | – | – | – | – | – | –
18 | N#CCc1ccc(C(C#N)/C(CCCC(=O)Nc2cccc([N+](=O)[O-])c2)=N/NC(N)=S)cc1 (centres undefined) | > 100 µM | > 100 µM | > 100 µM | > 100 µM | > 100 µM | > 100 µM | > 100 µM | > 100 µM | > 100 µM | – | – | – | – | – | – | – | – | – | – | –
19 | C=C[C@H]1C[C@@H]2C[C@@H]3[C@H]4C/C=C\C(=O)NCCCC5NC(=O)C(=C(O)/C=C/[C@@H]4CC(=O)[C@H]3[C@@H]2[C@H]1C)C5=O (some centres undefined) | 0.299 µM | 3.21 µM | – | 0.379 µM | 0.419 µM | 0.606 µM | – | 0.309 µM | 0.822 µM | 0.15 µM | 1.78 µM | 0.161 µM | – | 0.253 µM | 0.166 µM | 0.192 µM | – | 0.192 µM | 0.365 µM | 0.242 µM
20 | CC(=O)N1C/C(=C\c2ccc(N(C)C)cc2)C(=O)/C(=C/c2ccc(N(C)C)cc2)C1 | > 100 µM | – | > 100 µM | > 100 µM | > 100 µM | > 100 µM | > 100 µM | > 100 µM | > 100 µM | – | – | – | – | – | – | – | – | – | – | –
